Test results from BigSolDB 2.1.

OC(CN1CCN(CC(O)(Cn2cncn2)c2ccc(F)cc2F)CC1)(Cn1cncn1)c1ccc(F)cc1F (stereo not given)
solubility (mole fraction)
Conditions	293.15 K	298.15 K	303.15 K	308.15 K	313.15 K
in ethanol	0.000305	0.00036	0.000401	0.000463	0.000548
in n-hexane	9.77e-07	1.17e-06	1.37e-06	1.62e-06	1.92e-06
in n-octanol	6.23e-05	7.87e-05	0.000101	0.000126	0.00016
